Nine compounds from patent US20250171400A1, “AZA-HETEROCYCLYL CARBOXAMIDE AND RELATED COMPOUNDS AND THEIR USE IN TREATING MEDICAL CONDITIONS” (X-BIOTIX THERAPEUTICS, INC., priority 2021, published 2025) can be followed below.

The target in one experiment is E. coli LpxC (Escherichia coli (strain K12), UniProt P0A725). As to the kind of experiment: in vitro substrate deacetylation assay for inhibition of LpxC (ADDA analysis). Format: biochemical. To be noted: 5 nM E. coli LpxC, 2.5 μM substrate, 1 hour at room temperature. As to the method:
(§1) Exemplary compounds from the above Examples were tested for ability to inhibit LpxC activity using an in vitro substrate deacetylation assay with ADDA™ analysis. Assay procedures and results are described below.
Dilutions of test compound were pre-incubated with 5 nM P. aeruginosa or E. coli LpxC for 10 minutes at room temperature in 50 mM NaH2PO4, 500 mM sucrose, 0.2 mg/mL BSA, pH 7.2 and <1% DMSO. Reactions were initiated by the addition of 2× substrate (UDP-3-O—(R-3-hydroxydecanoyl)-N-acetylglucosamine, Carbosynth Ltd, UK, for P. aeruginosa LpxC and UDP-3-O—(R-3-hydroxymyristoyl)-N-acetylglucosamine, BOC Sciences, USA, for E. coli LpxC), in 50 mM NaH2PO4, 0.5 mg/mL BSA, pH 7.2, to a final concentration of 2.5 μM. Reactions proceeded for 1 hour at room temperature prior to quenching with and equal volume of 2% acetic acid.
For ADDA™ analysis, an aliquot of assay sample was withdrawn from each well of the 384-well plate and applied to a Hypercarb cartridge (Optimize Technologies, USA) under conditions designed to retain analytes of interest. Analytes were eluted using 1:1:2 acetone:acetonitrile:water containing 5 mM ammonium acetate then analysed by triple-quadrupole mass spectrometry. Mass spectrometry was carried out using electrospray ionization in negative ion mode. Daughter ion peaks representing detected substrate (P. aeruginosa: parent Q1 mass=775.8 amu, daughter Q3 mass=384.7 amu E. coli: parent Q1 mass=833.0 amu, daughter Q3 mass=385.0 amu, collision energy=analyte specific, dwell time=50 ms) were identified using a multiple-reaction monitoring protocol.
Total activity (0% inhibition) was obtained from reactions containing no compound, and 100% inhibition is defined as reactions in the presence of 1 μM CHIR-090 (N-[(1S,2R)-2-hydroxy-1-[(hydroxyamino)carbonyl]propyl]-4-[2-[4-(4-morpholinylmethyl)phenyl]ethynyl]-benzamide). For IC50 determinations, peak areas of the substrate and product were compared to compute the proportion of substrate reacted by the LpxC enzyme at each compound concentration. The fractional activity was converted to percentage inhibition and plotted against compound concentration in ActivityBase™ and fit using a four-parameter logistic using non-linear regression to yield the IC50 value.

A further experiment deals with P. aeruginosa LpxC (Pseudomonas aeruginosa (strain ATCC 15692 / DSM 22644 / CIP 104116 / JCM 14847 / LMG 12228 / 1C / PRS 101 / PAO1), UniProt P47205). The experiment in a line: biochemical. As to conditions: 5 nM P. aeruginosa LpxC, 2.5 μM substrate, 1 hour at room temperature. The experiment is classed as biochemical. As to the method:
as §1
For ADDA™ analysis, an aliquot of assay sample was withdrawn from each well of the 384-well plate and applied to a Hypercarb cartridge (Optimize Technologies, USA) under conditions designed to retain analytes of interest. Analytes were eluted using 1:1:2 acetone:acetonitrile:water containing 5 mM ammonium acetate then analysed by triple-quadrupole mass spectrometry. Mass spectrometry was carried out using electrospray ionization in negative ion mode.
For IC50 determinations, peak areas of the substrate and product were compared to compute the proportion of substrate reacted by the LpxC enzyme at each compound concentration.

The subject of experiment [1] is E. coli BW25113 isogenic mutant deficient in acrA mediated efflux. The experiment in a line: broth microdilution minimum inhibition concentration assay. Format: cell-based. As to conditions: Escherichia coli, BW25113, read-out: E. coli KO MIC. Here is the method: (§2) Exemplary compounds from the above Examples were tested to determine their minimum inhibitory concentration (MIC) for exemplary strains of Eschericia and Pseudomonas bacteria using broth microdilution methods. Assay procedures and results are described below.
(§3) Broth microdilution assays were conducted according to Clinical and Laboratory Standards Institute guidelines (CLSI, M07-A11: Clinical and Laboratory Standards Institute. Methods for Dilution Antimicrobial Susceptibility Tests for Bacteria that Grow Aerobically; Approved Standard—11th Edition. Wayne, PA: CLSI, 2018.). Briefly, a 0.5 McFarland standard suspension was made from bacterial isolates on non-selective, solid media. The inocula were adjusted to give a bacterial concentration of 1×10^6 CFU/mL. Serial doubling-dilutions of each compound were prepared in cation-adjusted Mueller-Hinton broth (Sigma-Aldrich) in 96-well microdilution plates. A 50 μL aliquot of the inoculum was added to each microdilution plate and, within 15 minutes, incubated at 37° C. in air for 16-20 h. […] The test was controlled by the determination of piperacillin MIC against both E. coli ATCC 25922 and P. aeruginosa ATCC 27853 and ensuring accordance with the ranges published in CLSI supplementary document M100 (CLSI, M100Ed29: Clinical and Laboratory Standards Institute. Performance Standards for Antimicrobial Susceptibility Testing, 29th Edition. Wayne, PA: CLSI, 2018.).
(§4) Multiple enterobacteriaceae strains were tested, including E. coli ATCC 25922 and K. pneumoniae ATCC 43816. WT E. coli BW25113 was tested with an isogenic mutant deficient in acrA mediated efflux by clean deletion. WT P. aeruginosa PAO1 was tested with an isogenic mutant deficient in MexA mediated efflux by clean deletion.
(§5) Experimental results are provided in Table 4, which provides MIC values for wild-type E. coli BW25113 (“E. coli WT MIC”), an isogenic mutant deficient in acrA mediated efflux by clean deletion (“E. coli KO MIC”), wild-type P. aeruginosa PAO1 (“P. aeruginosa WT MIC”), and an isogenic mutant deficient in MexA mediated efflux by clean deletion (“[…]”).

Experiment [2] relates to P. aeruginosa PAO1 isogenic mutant deficient in MexA mediated efflux. The description is as above. Format: cell-based. To be noted: Pseudomonas aeruginosa, PAO1, read-out: P. aeruginosa KO MIC. Here is the method: as §2, §3, §4, §5
Experiment [3] concerns wild-type E. coli BW25113. The experiment is described as above. To be noted: Escherichia coli; wild-type E. coli BW25113, 37° C. 16-20 h; read-out: E. coli WT MIC. The experiment is classed as cell-based. As to the method:
as §2, §3, §4, §5

Experiment [4] concerns wild-type P. aeruginosa PAO1. The experiment is described as above. The experiment is classed as cell-based. To be noted: Pseudomonas aeruginosa. As to the method: as §2, §3, §4, §5
Where [5] appears, read: PAO1, read-out: P. aeruginosa WT MIC.
Setting [6] is: wild-type P. aeruginosa PAO1, 37° C. 16-20 h, read-out: P. aeruginosa WT MIC.

Converted amounts (≈) assume the structure as drawn. Where two headings read alike, the source gives them in different places. A value given as a limit tells only on which side of the number the result lay.

Sequence of E. coli LpxC (P0A725 whole entry): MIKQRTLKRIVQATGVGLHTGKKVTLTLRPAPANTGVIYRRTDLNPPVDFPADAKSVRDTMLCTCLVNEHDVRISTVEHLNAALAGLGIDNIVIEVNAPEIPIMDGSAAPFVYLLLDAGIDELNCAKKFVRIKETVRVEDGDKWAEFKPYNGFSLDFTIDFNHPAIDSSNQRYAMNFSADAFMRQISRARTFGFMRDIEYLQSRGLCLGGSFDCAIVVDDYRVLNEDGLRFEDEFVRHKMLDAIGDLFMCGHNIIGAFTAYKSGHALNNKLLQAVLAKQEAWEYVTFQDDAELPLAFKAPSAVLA

Regarding `CC(C)C(=O)N1C[C@H](NC(=O)[C@H]2NCC[C@@H]2O)C[C@@H]1C(=O)NCc1ccc(C#CC#CC2CC2)cc1` [Example 9AB], the IC50 on E. coli LpxC was 500 to 2500 nM; at P. aeruginosa LpxC it was less than 50 nM. In addition, the MIC in experiment [1] was 20 to 100 µM (≈ 9.81 to 49.1 µg/mL); in experiment [2], 20 to 100 µM (≈ 9.81 to 49.1 µg/mL); in experiment [3] it was greater than 100 µM; in experiment [4] (setting [5]), greater than 100 µM.

With `CS(=O)(=O)N1C[C@H](NC(=O)[C@@H]2C[C@H](F)CN2)C[C@@H]1C(=O)NCc1ccc(C#Cc2ccc(CN3CCOCC3)cc2)cc1` [Example 9AI, (2R,4R)-4-((2S,4S)-4-Fluoropyrrolidine-2-carboxamido)-1-(methylsulfonyl)-N-(4-((4-(morpholinomethyl)phenyl)ethynyl)benzyl)pyrrolidine-2-carboxamide], the IC50 against E. coli LpxC is less than 500 nM; on P. aeruginosa LpxC, less than 50 nM. The MIC in experiment [1] is 20 to 100 µM (≈ 12.2 to 61.2 µg/mL); in experiment [2], less than 20 µM; in experiment [3] it was greater than 100 µM; in experiment [4] (setting [6]) it was greater than 100 µM.

Take `CC(C)C(=O)N1C[C@H](NC(=O)[C@@H]2C[C@H](F)CN2)C[C@@H]1C(=O)NCc1ccc(C#CC#Cc2ccccc2)cc1` [Example 9AT]: the IC50 against E. coli LpxC is 500 to 2500 nM; at P. aeruginosa LpxC, less than 50 nM. Further, the MIC in experiment [1] was less than 20 µM; in experiment [2] it was less than 20 µM; in experiment [3] it was greater than 100 µM; in experiment [4] (setting [6]), greater than 100 µM.

Consider `CC(C)C(=O)N1C[C@H](NC(=O)[C@@H]2CC(F)(F)CN2)C[C@@H]1C(=O)NCc1ccc(C#Cc2ccc(CN3CCOCC3)cc2)cc1` [Example 9F], for which the values for the IC50 against E. coli LpxC and at P. aeruginosa LpxC were 500 to 2500 nM and 50 to 100 nM, respectively. Besides, the MIC was 20 to 100 µM (≈ 12.4 to 62.2 µg/mL) in experiment [1], 20 to 100 µM (≈ 12.4 to 62.2 µg/mL) in experiment [2], greater than 100 µM in experiment [3] and greater than 100 µM in experiment [4] (setting [5]).

With `CN(C)C(=O)N1C[C@H](NC(=O)[C@@H]2C[C@H](F)CN2)C[C@@H]1C(=O)NCc1ccc(C#Cc2ccc(CN3CCOCC3)cc2)cc1` [Example 9AH], the IC50 is 500 to 2500 nM against E. coli LpxC and less than 50 nM against P. aeruginosa LpxC. The MIC was 20 to 100 µM (≈ 12.1 to 60.5 µg/mL) in experiment [1], less than 20 µM in experiment [2], greater than 100 µM in experiment [3] and greater than 100 µM in experiment [4] (setting [6]).

Consider `N[C@H]1C[C@H](C(=O)N2C[C@H](NC(=O)[C@@H]3C[C@H](F)CN3)C[C@@H]2C(=O)NCc2ccc(C#CC#CC3CC3)cc2)C1` [Example 9AF], for which the IC50 against E. coli LpxC was 500 to 2500 nM; against P. aeruginosa LpxC, 50 to 100 nM. The MIC in experiment [1], in experiment [2], in experiment [3] and in experiment [4] (setting [5]) was greater than 100 µM throughout.

Turning to `COC(=O)N1C[C@H](NC(=O)[C@@H]2C[C@H](F)CN2)C[C@@H]1C(=O)NCc1ccc(C#Cc2ccc(CN3CCOCC3)cc2)cc1` [Example 9AG], the IC50 is less than 500 nM against E. coli LpxC and less than 50 nM at P. aeruginosa LpxC. The MIC in experiment [1] is less than 20 µM; in experiment [2] it was less than 20 µM; in experiment [3], 20 to 100 µM (≈ 11.8 to 59.2 µg/mL); in experiment [4] (setting [6]), greater than 100 µM.

Regarding `O=C(O)CN1C[C@H](NC(=O)[C@@H]2C[C@H](F)CN2)C[C@@H]1C(=O)NCc1ccc(C#CC#CC2CC2)cc1` [Example 9AN, 2-((2R,4R)-2-((4-(Cyclopropylbuta-1,3-diyn-1-yl)benzyl)carbamoyl)-4-((2S,4S)-4-fluoropyrrolidine-2-carboxamido)pyrrolidin-1-yl)acetic acid], the results for the IC50 against E. coli LpxC and at P. aeruginosa LpxC were less than 500 nM and 50 to 100 nM, respectively. For the same compound, the MIC in experiment [1] is greater than 100 µM; in experiment [2] it was 20 to 100 µM (≈ 9.61 to 48.1 µg/mL); in experiment [3] it was greater than 100 µM; in experiment [4] (setting [5]) it was greater than 100 µM.

With `CC(C)C(=O)N1C[C@H](NC(=O)[C@@H]2C[C@H](F)CN2)C[C@@H]1C(=O)NCc1ccc(C#Cc2ccc(CN3CCOCC3)cc2)cc1` [Example 9D], the IC50 against E. coli LpxC was less than 500 nM; on P. aeruginosa LpxC, less than 50 nM. The MIC in experiment [1] is less than 20 µM; in experiment [2], less than 20 µM; in experiment [3], 20 to 100 µM (≈ 12.1 to 60.4 µg/mL); in experiment [4] (setting [5]) it was greater than 100 µM.
